Measurements from ChEMBL document CHEMBL1150101, “Novel antiplatelet naphthalene from Rhamnus nakaharai” (J Nat Prod, 1995).

Legend:
[1] = Antiplatelet activity against washed rabbit platelet assessed as collagen-induced platelet aggregation at 300 uM administered 3 mins before collagen challenge; format: functional, Oryctolagus cuniculus
[2] = Antiplatelet activity against washed rabbit platelet assessed as arachidonic acid-induced platelet aggregation at 300 uM administered 3 mins before arachidonic acid challenge; format: functional, Oryctolagus cuniculus
[3] = Antiplatelet activity against washed rabbit platelet assessed as PAF-induced platelet aggregation at 300 uM administered 3 mins before PAF challenge; format: functional, Oryctolagus cuniculus
[4] = Antiplatelet activity against washed rabbit platelet assessed as thrombin-induced platelet aggregation at 300 uM administered 3 mins before thrombin challenge; format: functional, Oryctolagus cuniculus
[5] = Antiplatelet activity against washed rabbit platelet assessed as arachidonic acid-induced platelet aggregation at 50 uM administered 3 mins before arachidonic acid challenge; format: functional, Oryctolagus cuniculus
[6] = Antiplatelet activity against washed rabbit platelet assessed as PAF-induced platelet aggregation at 50 uM administered 3 mins before PAF challenge; format: functional, Oryctolagus cuniculus
[7] = Antiplatelet activity against human platelet assessed as epinephrine-induced platelet aggregation administered 3 mins before epinephrine challenge; format: functional
[8] = Antiplatelet activity against washed rabbit platelet assessed as collagen-induced platelet aggregation at 50 uM administered 3 mins before collagen challenge; format: functional, Oryctolagus cuniculus
[9] = Antiplatelet activity against washed rabbit platelet assessed as thrombin-induced platelet aggregation at 50 uM administered 3 mins before thrombin challenge; format: functional, Oryctolagus cuniculus
[10] = Antiplatelet activity against washed rabbit platelet assessed as arachidonic acid-induced platelet aggregation; format: functional, cell-based; conditions: Oryctolagus cuniculus
[11] = Antiplatelet activity against human platelet assessed as epinephrine-induced platelet aggregation at 20 uM administered 3 mins before epinephrine challenge; format: functional
[12] = Antiplatelet activity against human platelet assessed as epinephrine-induced platelet aggregation at 50 uM administered 3 mins before epinephrine challenge; format: functional
[13] = Antiplatelet activity against washed rabbit platelet assessed as thrombin-induced platelet aggregation at 400 uM administered 3 mins before thrombin challenge; format: functional, Oryctolagus cuniculus
[14] = Antiplatelet activity against washed rabbit platelet assessed as PAF-induced platelet aggregation at 400 uM administered 3 mins before PAF challenge; format: functional, Oryctolagus cuniculus
[15] = Antiplatelet activity against washed rabbit platelet assessed as arachidonic acid-induced platelet aggregation at 400 uM administered 3 mins before arachidonic acid challenge; format: functional, Oryctolagus cuniculus
[16] = Antiplatelet activity against human platelet assessed as epinephrine-induced platelet aggregation at 100 uM administered 3 mins before epinephrine challenge; format: functional
[17] = Antiplatelet activity against washed rabbit platelet assessed as collagen-induced platelet aggregation at 400 uM administered 3 mins before collagen challenge; format: functional, Oryctolagus cuniculus

Structure (SMILES)	Activity [1] [%]	Activity [2] [%]	Activity [3] [%]	Activity [4] [%]	further results
COc1c(-c2ccc(OC(C)=O)c(OC(C)=O)c2)oc2cc(OC(C)=O)cc(OC(C)=O)c2c1=O	0	0	0	64.9	
COc1cc(O)c2c(O)c3c(cc2c1)COC3=O	41.7	22.1	80	88.1	
COc1c(-c2ccc(O)c(O)c2)oc2cc(O)cc(O)c2c1=O [3-O-METHYLQUERCETIN]	5.4	0	50.1	81.2	
CC(=O)Oc1ccccc1C(=O)O [ASPIRIN]					Activity [5]: 0%; Activity [6]: 90.5%; Activity [7]: 39.6%; Activity [8]: 85.4%; Activity [9]: 91.9%
COc1cc(OC(C)=O)cc2cc(C)c(C(C)=O)c(OC(C)=O)c12 [ISOTORACHRYSONE PERACETATE]	16.8	0	86.7	82.7	IC50 [10]: 5.1 µM; Activity [11]: 83%; Activity [12]: 13%
COc1cc(O)cc2cc(C)c(C(C)=O)c(O)c12 [ISOTORACHRYSONE]					Activity [13]: 92.2%; Activity [14]: 94.2%; Activity [15]: 0%; Activity [16]: 20.2%; Activity [17]: 39.1%
